Measured values: article PMC2248166, “Quantitative peptide binding motifs for 19 human and mouse MHC class I molecules derived using positional scanning combinatorial peptide libraries” (Immunome Research, 2008)

Tests used:
Assay type in all cases: binding
HLA B*5301 = HLA B*5301 (Homo sapiens, UniProt P01889, A329T/A93T/A95T/C349S/D201E/D98Y/E176V/E187L/E204Q/E69T/G107R/I218V/K202T/L105A/L119I/N104I/Q94N/R106L/R155S/R180L/S101N/S121R/S35A/S48A/T118I/V127L/V306I/V36M/Y140S/Y91F)
HLA B*3501 = HLA B*3501 (Homo sapiens, UniProt P01889, A329T/A93T/A95T/C349S/D201E/D98Y/E176V/E187L/E204Q/E69T/I218V/K202T/L119I/Q94N/R155S/R180L/S121R/S35A/S48A/T118I/V127L/V306I/V36M/Y140S/Y91F)
HLA A*3001 = HLA A*3001 (Homo sapiens, UniProt P04439, D140H/D185E/E176W/F33S/G80R/H175R/K168Q/R138E/R41S); assay: biochemical
HLA A*3201 = HLA A*3201 (Homo sapiens, UniProt P04439, A270S/D101S/D185E/E176V/E277Q/F133L/G103R/G107R/G231S/H175R/I121M/I218V/I322F/K168Q/L105A/L300P/L318F/M331R/P208A/P217A/Q94H/R106L/R138Q/S129P/T104I/T323A/T345S/V100E/V321M/V358M); assay: biochemical
HLA A*6802 = HLA A*6802 (Homo sapiens, UniProt P04439, A269V/D140Y/D185E/E176V/E277Q/E87N/F33Y/G231S/I121R/I166T/I218V/L180W/L300P/L318F/N151K/P208A/P217A/Q86R/R138H/R169H/S129P/T345S/V36M)
HLA B*5801 = HLA B*5801 (Homo sapiens, UniProt P01889, A329T/C349S/D201E/D98Y/E176V/E187L/E204Q/E69T/G107R/I218V/I90N/K202T/L105A/L119I/N104I/N87E/Q89R/Q94S/R106L/R155S/R180L/R86G/S101N/S121R/S35A/S48A/T118I/V127L/V306I/V36M/Y140S/Y91M)
HLA B*5101 = HLA B*5101 (Homo sapiens, UniProt P01889, A329T/A93T/A95T/C349S/D138N/D201E/D98Y/E187L/E204Q/E69T/G107R/I218V/K202T/L105A/L119W/N104I/Q94N/R106L/R155S/R180L/S101N/S121T/S35A/S48A/V306I/V36M/Y195H/Y91F)
H-2 D^d = H-2 D^d (Mus musculus, UniProt P01900)
HLA B*5802 = HLA B*5802 (Homo sapiens, UniProt P01889, A329T/C349S/D201E/D98Y/E176V/E187L/E204Q/E69T/G107R/I218V/I90N/K202T/L105A/N104I/N87E/Q89R/Q94S/R106L/R155S/R180L/R86G/S101N/S121W/S35A/S48A/V127L/V306I/V36M/Y140S/Y91M)
HLA B*1501 = HLA B*1501 (Homo sapiens, UniProt P01889, A329T/A93T/A95T/C349S/D201E/D98Y/E187L/E204Q/E69M/E70A/K202T/N87E/Q94N/R155S/R180W/S121R/S35A/S48A/V306I/V36M/Y140S/Y91S); assay: biochemical
H-2 D^b = H-2 D^b (Mus musculus, UniProt P01899)
H-2 K^d = H-2 K^d (Mus musculus, UniProt P01902)
HLA B*0801 = HLA B*0801 (Homo sapiens, UniProt P01889, A93T/A95T/D138N/E176V/E187T/K202T/Q94N/R180D/S35A/V36M/Y33D/Y91F); assay: biochemical
HLA B*5401 = HLA B*5401 (Homo sapiens, UniProt P01889, A329T/C349S/D138N/D201E/E176V/E187T/E204Q/E69G/I76V/K202T/L119W/R155S/R180L/S121T/S35A/S48A/V127L/V306I/V36M/Y140L)
HLA B*1503 = HLA B*1503 (Homo sapiens, UniProt P01889, A329T/A93T/A95T/C349S/D201E/D98Y/E187L/E204Q/K202T/N87E/Q94N/R155S/R180L/S121R/S35A/V306I/V36M/Y140S/Y91S); assay: biochemical
H-2 K^k = H-2 K^k (Mus musculus, UniProt P04223)
H-2 K^k, sequence (P01887 21-119): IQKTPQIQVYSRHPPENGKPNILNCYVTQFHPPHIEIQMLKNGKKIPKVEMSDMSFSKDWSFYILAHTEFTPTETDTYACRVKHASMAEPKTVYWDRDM
H-2 K^k, sequence (P04223 22-369): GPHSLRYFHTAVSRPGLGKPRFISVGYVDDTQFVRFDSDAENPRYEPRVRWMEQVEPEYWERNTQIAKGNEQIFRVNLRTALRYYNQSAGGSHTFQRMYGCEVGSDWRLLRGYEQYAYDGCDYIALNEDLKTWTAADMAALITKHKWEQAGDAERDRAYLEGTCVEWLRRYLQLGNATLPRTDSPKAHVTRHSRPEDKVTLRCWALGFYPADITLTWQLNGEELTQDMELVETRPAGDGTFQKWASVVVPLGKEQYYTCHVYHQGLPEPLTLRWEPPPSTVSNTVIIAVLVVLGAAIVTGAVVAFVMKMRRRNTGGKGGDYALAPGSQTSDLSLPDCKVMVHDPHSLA

H-2 D^b, sequence (P01887 21-119): as the sequence (P01887 21-119) above
H-2 D^b, sequence (P01899 25-362): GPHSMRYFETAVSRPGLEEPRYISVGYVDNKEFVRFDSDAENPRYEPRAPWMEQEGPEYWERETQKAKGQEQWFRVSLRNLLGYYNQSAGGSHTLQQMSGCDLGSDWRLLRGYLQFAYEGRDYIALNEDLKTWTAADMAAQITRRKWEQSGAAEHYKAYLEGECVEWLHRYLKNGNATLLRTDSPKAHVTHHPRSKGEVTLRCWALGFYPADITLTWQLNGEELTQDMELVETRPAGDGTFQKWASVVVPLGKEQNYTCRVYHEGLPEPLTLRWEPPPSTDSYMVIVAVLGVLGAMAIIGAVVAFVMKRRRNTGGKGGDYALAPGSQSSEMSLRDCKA
H-2 K^d, sequence (P01887 21-119): as the sequence (P01887 21-119) above
H-2 K^d, sequence (P01902 22-368): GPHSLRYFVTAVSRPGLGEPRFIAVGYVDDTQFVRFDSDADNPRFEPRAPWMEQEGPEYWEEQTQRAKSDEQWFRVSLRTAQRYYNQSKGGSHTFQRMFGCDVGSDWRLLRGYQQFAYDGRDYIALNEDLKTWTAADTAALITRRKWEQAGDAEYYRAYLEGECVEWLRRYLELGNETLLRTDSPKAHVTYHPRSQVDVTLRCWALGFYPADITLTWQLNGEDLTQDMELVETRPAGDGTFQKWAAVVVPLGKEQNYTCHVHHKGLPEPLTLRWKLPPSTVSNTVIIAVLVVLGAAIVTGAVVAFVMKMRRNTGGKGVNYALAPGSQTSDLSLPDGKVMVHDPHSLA
H-2 D^d, sequence (P01900 whole entry, looked up): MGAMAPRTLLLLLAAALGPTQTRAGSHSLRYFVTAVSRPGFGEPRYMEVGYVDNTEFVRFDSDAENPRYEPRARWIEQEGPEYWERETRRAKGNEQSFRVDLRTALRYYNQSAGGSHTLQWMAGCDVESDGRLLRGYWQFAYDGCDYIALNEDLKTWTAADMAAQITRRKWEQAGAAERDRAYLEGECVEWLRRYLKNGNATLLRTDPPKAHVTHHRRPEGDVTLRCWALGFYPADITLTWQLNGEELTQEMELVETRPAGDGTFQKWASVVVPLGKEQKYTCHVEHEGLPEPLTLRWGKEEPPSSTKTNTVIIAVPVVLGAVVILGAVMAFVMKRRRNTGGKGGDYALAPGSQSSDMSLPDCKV

Sequence	Normalized average relative binding affinity(ARB) (HLA B*5301)	Normalized average relative binding affinity(ARB) (HLA B*3501)	Normalized average relative binding affinity(ARB) (HLA A*3001)	Normalized average relative binding affinity(ARB) (HLA A*3201)	Normalized average relative binding affinity(ARB) (HLA A*6802)	Normalized average relative binding affinity(ARB) (HLA B*5801)	Normalized average relative binding affinity(ARB) (HLA B*5101)	Normalized average relative binding affinity(ARB) (H-2 D^d)	Normalized average relative binding affinity(ARB) (HLA B*5802)	Normalized average relative binding affinity(ARB) (HLA B*1501)	Normalized average relative binding affinity(ARB) (H-2 D^b)	Normalized average relative binding affinity(ARB) (H-2 K^d)	Normalized average relative binding affinity(ARB) (HLA B*0801)	Normalized average relative binding affinity(ARB) (HLA B*5401)	Normalized average relative binding affinity(ARB) (HLA B*1503)	Normalized average relative binding affinity(ARB) (H-2 K^k)
XXXXXXIXX [3064.0128]	0.10	0.48	0.16	0.094	0.55	0.65	0.59	0.048	0.058	0.40	0.33	0.045	0.030	0.15	0.29	0.037
XXXXXXKXX [3064.0129]	0.022	0.073	0.062	0.030	0.086	0.037	0.12	0.0067	0.031	0.15	0.062	0.023	0.26	0.089	0.091	0.15
XXXXXXLXX [3064.0130]	0.32	0.21	0.21	0.86	0.56	1.0	0.65	0.036	0.014	1.0	0.26	0.10	0.60	0.13	0.24	0.10
XXXXXXMXX [3064.0131]	0.15	0.13	0.32	0.10	0.51	0.30	0.68	0.024	0.35	0.54	0.24	0.080	0.62	0.065	0.18	0.064
XXXXXXNXX [3064.0132]	0.29	0.28	0.10	0.42	0.54	0.37	0.46	0.095	0.092	0.66	0.41	0.61	0.69	0.39	1.0	0.22
XXXXXXPXX [3064.0133]	0.50	0.31	1.0	0.088	0.37	0.22	0.53	0.020	1.0	0.62	0.26	0.021	0.36	0.32	0.16	0.10
XXXXXXQXX [3064.0134]	1.0	0.36	0.29	0.33	0.45	0.23	0.50	0.057	0.22	0.51	0.84	0.25	0.79	1.0	0.95	0.016
XXXXXXRXX [3064.0135]	0.25	0.16	0.085	0.10	0.11	0.075	0.57	0.013	0.21	0.22	0.15	0.11	0.50	0.13	0.21	0.21
